These results are taken from US20250171431A1, “HETEROCYCLIC INHIBITORS OF IGF-1R FOR TREATMENT OF DISEASE” (HORIZON THERAPEUTICS IRELAND DAC, priority 2023, published 2025).

The experiment deals with IGF-1R (Homo sapiens (Human), UniProt P08069). As to the kind of experiment: Example B-1: IGF-1R Assay (PC3 cells, IGF1 stimulation, AlphaLISA). It counts as cell-based. Conditions: 200 ng/mL IGF1 stimulation, read-out: Biological Activity against IGF-1R IC50. As to the method: 50K PC3 cells were seeded on day 1 in 50 μL of media in 96-well plate and incubated overnight at 37° C., 5% CO2. On day 2, all cells were expected to be at 80-90% confluency. Cells were starved for two hours by changing the media to 90 μL of EMEM serum-free media and incubated for 2 hours. Next, cells were treated with 10 μL of 10× concentrated and 3× serially diluted compounds for two hours. It makes 1× of compounds in 100 μL media. This was followed by stimulation of cells with 11×IGF1 for 30 min in 10 μL of serum-free EMEM media at the final concentration of 200 ng/mL.
The media was removed and replaced by 50 μL of 1× lysis buffer from the AlphaLISA kit (with 1× of cOmplete™ protease inhibitor). The plates were sealed, and cells were allowed to lyse for 10 min in the shaker before storing the plate at −20° C. until used. The AlphaLISA assay with processed cell lysates were performed as described in the protocol. Briefly, 10 μL of the undiluted sample were loaded to 384 well Optiplates and 5 μL of the acceptor mix (as described in the AlphaLISA kit) was added to each well. The plates were sealed and briefly vortexed followed by the incubation at RT for 3 hours. In the dark, 5 μL of donor mix was added to each well. All plates were sealed and stored at RT overnight. The plates were read in EnVision reader using standard AlphaLISA settings.
Compound activity was analyzed using CBIS data analysis suite (ChemInnovation, CA). Percentage inhibition was calculated using the following formula: % Inhibition=100%×(1−(mean RLU of test sample−mean RLU of vehicle control)/(mean RLU of EC80 control−mean RLU of vehicle control)). The activity for representative examples of the invention is shown in the following table, wherein A: IC50≤500 nM; B: 500 nM<IC50≤2 μM; C: 2 μM<IC50≤10 μM; D: IC50>10 μM.
On the technique in general: In Alpha technology, singlet oxygen from a donor bead excites a nearby acceptor bead.

A value given as a limit tells only on which side of the number the result lay.

Sequence of IGF-1R (P08069 31-1367): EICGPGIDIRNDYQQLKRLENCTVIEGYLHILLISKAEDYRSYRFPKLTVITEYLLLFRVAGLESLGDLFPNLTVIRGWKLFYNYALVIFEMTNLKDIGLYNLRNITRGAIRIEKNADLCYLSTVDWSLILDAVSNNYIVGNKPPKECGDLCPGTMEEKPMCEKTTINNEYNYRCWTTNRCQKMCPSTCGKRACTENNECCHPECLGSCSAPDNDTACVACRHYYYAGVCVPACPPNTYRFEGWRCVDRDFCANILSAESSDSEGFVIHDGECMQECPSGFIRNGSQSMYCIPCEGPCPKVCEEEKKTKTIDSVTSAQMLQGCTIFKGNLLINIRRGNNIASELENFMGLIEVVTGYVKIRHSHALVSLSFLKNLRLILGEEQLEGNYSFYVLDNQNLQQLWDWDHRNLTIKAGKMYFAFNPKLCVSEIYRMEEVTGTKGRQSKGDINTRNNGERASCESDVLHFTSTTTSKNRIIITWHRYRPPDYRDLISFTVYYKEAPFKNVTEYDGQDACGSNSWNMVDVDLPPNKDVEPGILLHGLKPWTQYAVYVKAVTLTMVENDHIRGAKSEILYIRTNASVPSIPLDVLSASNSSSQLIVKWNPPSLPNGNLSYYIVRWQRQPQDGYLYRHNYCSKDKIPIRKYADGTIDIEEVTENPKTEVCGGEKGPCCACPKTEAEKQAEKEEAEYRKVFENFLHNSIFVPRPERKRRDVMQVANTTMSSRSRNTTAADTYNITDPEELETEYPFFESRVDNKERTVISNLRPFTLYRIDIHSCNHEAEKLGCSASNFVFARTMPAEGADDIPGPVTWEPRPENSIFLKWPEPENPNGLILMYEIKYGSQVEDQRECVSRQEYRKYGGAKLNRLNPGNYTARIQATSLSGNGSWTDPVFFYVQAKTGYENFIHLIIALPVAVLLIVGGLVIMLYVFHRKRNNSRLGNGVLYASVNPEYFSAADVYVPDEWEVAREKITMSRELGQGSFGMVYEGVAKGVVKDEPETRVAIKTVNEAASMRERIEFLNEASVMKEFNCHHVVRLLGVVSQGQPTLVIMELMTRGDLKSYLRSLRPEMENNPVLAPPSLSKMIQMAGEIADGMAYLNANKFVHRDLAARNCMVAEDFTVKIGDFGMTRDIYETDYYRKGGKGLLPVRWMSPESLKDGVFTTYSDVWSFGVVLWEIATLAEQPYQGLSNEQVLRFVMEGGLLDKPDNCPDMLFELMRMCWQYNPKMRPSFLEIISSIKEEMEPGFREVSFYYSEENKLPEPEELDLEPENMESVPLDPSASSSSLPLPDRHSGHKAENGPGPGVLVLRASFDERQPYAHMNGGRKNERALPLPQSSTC

As usually defined, the IC50 is the concentration at which inhibition is half-maximal. Regarding `COc1cc(Nc2nccc(Nc3ccc4c(OC)cccc4c3)n2)ccc1OCCCN1CCCCC1` [Compound 453, 4-(5-methoxy-2-naphthylamino)-2-[3-methoxy-4-(3-piperidinopropoxy)phenylamino] pyrimidine], the IC50 is no more than 500 nM.
As for `COc1cc(Nc2nccc(Nc3cnc4ccc(Cl)cc4c3)n2)cnc1N1CCN(C2COC2)CC1` [Compound 481, 4-(6-chloro-3-quinolylamino)-2-{5-methoxy-6-[4-(3-oxetanyl)-1-piperazinyl]-3-pyridylamino}pyrimidine], the IC50 was no more than 500 nM.
The result for `COc1cc(Nc2nccc(Nc3cnc4cc(F)c(F)cc4c3)n2)cnc1N1CC(N(C)C)C1` [Compound 48, 4-(6,7-difluoro-3-quinolylamino)-2-{6-[3-(dimethylamino)-1-azetidinyl]-5-methoxy-3-pyridylamino}pyrimidine] reads no more than 500 nM; that for `COc1cc(Nc2nccc(Nc3cnc4ccc(Cl)cc4c3)n2)cnc1OC1CCNCC1(F)F` (stereo not drawn) [Compound 257, 4-(6-chloro-3-quinolylamino)-2-[6-(3,3-difluoro-4-piperidyloxy)-5-methoxy-3-pyridylamino]pyrimidine], no more than 500 nM.
In the case of `COc1cc(N2CCC(C)(O)CC2)ncc1Nc1nccc(Nc2cnc3ccc(Cl)cc3c2)n1` [Compound 490, 1-{5-[4-(6-chloro-3-quinolylamino)-2-pyrimidinylamino]-4-methoxy-2-pyridyl}-4-methyl-4-piperidinol] it was no more than 500 nM; in that of `COc1cc(Nc2nccc(Nc3cnc4cc(F)c(F)cc4c3)n2)cnc1OC1CCNCC1(F)F` (stereo not drawn) [Compound 263, 2-[6-(3,3-difluoro-4-piperidyloxy)-5-methoxy-3-pyridylamino]-4-(6,7-difluoro-3-quinolylamino)pyrimidine], no more than 500 nM; in that of `COc1cc(Nc2nccc(Nc3cnc4cc(F)c(F)cc4c3)n2)cnc1N1CCNC(C(F)F)C1` (stereo not drawn) [Compound 482, 2-{6-[3-(difluoromethyl)-1-piperazinyl]-5-methoxy-3-pyridylamino}-4-(6,7-difluoro-3-quinolylamino)pyrimidine], no more than 500 nM.
In the case of `COc1ccc2cc(Nc3ccnc(Nc4ccc(N5CCN(C)CC5)cc4OC)n3)cnc2c1` [Compound 463, 2-[2-methoxy-4-(4-methyl-1-piperazinyl)phenylamino]-4-(7-methoxy-3-quinolylamino)pyrimidine] it was no more than 500 nM.
`COc1cc(Nc2nccc(Nc3cnc4ncc(F)cc4c3)n2)ccc1O[C@H]1C[C@@H](N(C)C)C1` [Compound 86, 4-(6-fluoro-1,8-diaza-3-naphthylamino)-2-{3-methoxy-4-[(1s,3s)-3-(dimethylamino)cyclobutoxy]phenylamino}pyrimidine]: the IC50 was no more than 500 nM.
The result for `CCc1ccc2cc(Nc3ccnc(Nc4ccc(OCCCN5CCCCC5)c(OC)c4)n3)cnc2c1` [Compound 72, 4-(7-ethyl-3-quinolylamino)-2-[3-methoxy-4-(3-piperidinopropoxy)phenylamino]pyrimidine] reads no more than 500 nM; that for `COC1CCc2cc(Nc3ccnc(Nc4ccc(OCCCN5CCOCC5)cc4)n3)cnc2C1` (stereo not drawn) [Compound 66, 4-(7-methoxy-5,6,7,8-tetrahydro-3-quinolylamino)-2-[p-(3-morpholinopropoxy)phenylamino] pyrimidine], 500 to 2000 nM; that for `COc1cc(Nc2nccc(Nc3cnc4cc(O)ccc4c3)n2)ccc1O[C@H]1C[C@H](N(C)C)C1` [Compound 326, 3-(2-{3-methoxy-4-[(1r,3r)-3-(dimethylamino)cyclobutoxy]phenylamino}-4-pyrimidinylamino)-7-quinolinol], no more than 500 nM.
The result for `COc1cc(Nc2nccc(Nc3cnc4cc(Cl)ccc4c3)n2)ccc1O[C@H]1C[C@@H](N(C)C)C1` [Compound 342, 4-(7-chloro-3-quinolylamino)-2-{3-methoxy-4-[(1s,3s)-3-(dimethylamino)cyclobutoxy]phenylamino}pyrimidine] reads no more than 500 nM; that for `Clc1ccc2ncc(Nc3ccnc(Nc4ccc(OCCCN5CCOCC5)cc4)n3)cc2c1` [Compound 401, 4-(6-chloro-3-quinolylamino)-2-[p-(3-morpholinopropoxy)phenylamino]pyrimidine], no more than 500 nM.
The result for `COc1cc(Nc2nccc(Nc3cnc4ccc(OC(F)(F)F)cc4c3)n2)ccc1O[C@H]1C[C@@H](N(C)C)C1` [Compound 128, N2-(4-((1s,3s)-3-(dimethylamino)cyclobutoxy)-3-methoxyphenyl)-N4-(6-(trifluoromethoxy)quinolin-3-yl)pyrimidine-2,4-diamine] reads no more than 500 nM.
`COc1cc(Nc2nccc(Nc3cc4ccc(F)c(F)c4[nH]c3=O)n2)ccc1O[C@H]1C[C@@H](N(C)C)C1` [Compound 117, 7,8-difluoro-3-(2-{3-methoxy-4-[(1s,3s)-3-(dimethylamino)cyclobutoxy]phenyl-amino}-4-pyrimidinylamino)-1,2-dihydro-2-quinolinone]: the IC50 was no more than 500 nM.
For `COc1cc(Nc2nccc(Nc3cnc4c(ccn4C)c3)n2)ccc1O[C@H]1C[C@@H](N(C)C)C1` [Compound 282, 2-{3-methoxy-4-[(1s,3s)-3-(dimethylamino)cyclobutoxy]phenylamino}-4-(1-methyl-1H-1,7-diazainden-5-ylamino)pyrimidine], the IC50 is no more than 500 nM.
The result for `COc1cc(Nc2nccc(Nc3cnc4cc(F)c(F)cc4c3)n2)cnc1N1CCS(=O)(=O)CC1` [Compound 161, 4-(5-((4-((6,7-difluoroquinolin-3-yl)amino)pyrimidin-2-yl)amino)-3-methoxypyridin-2-yl)thiomorpholine 1,1-dioxide] reads 500 to 2000 nM; that for `COc1cc(Nc2nccc(Nc3ccc4ccc(Cl)nc4n3)n2)ccc1O[C@H]1C[C@@H](N(C)C)C1` [Compound 168, N4-(7-chloro-1,8-naphthyridin-2-yl)-N2-(4-((1s,3s)-3-(dimethylamino)cyclobutoxy)-3-methoxyphenyl)pyrimidine-2,4-diamine], no more than 500 nM.
The result for `CN1CC(Oc2ccc(Nc3nccc(Nc4cnc5ccc(Cl)cc5c4)n3)cc2)C1` [Compound 294, 4-(6-chloro-3-quinolylamino)-2-[p-(1-methyl-3-azetidinyloxy)phenylamino] pyrimidine] reads 2000 to 10000 nM; that for `COc1cc(Nc2nccc(Nc3cnc4cc(F)c(F)cc4c3)n2)cnc1N1CCNC(C(F)(F)F)C1` (stereo not drawn) [Compound 176, N4-(6,7-difluoroquinolin-3-yl)-N2-(5-methoxy-6-(3-(trifluoromethyl)piperazin-1-yl)pyridin-3-yl)pyrimidine-2,4-diamine], no more than 500 nM.
On to `CN(C)[C@H]1C[C@H](Oc2ccc(Nc3nccc(Nc4cnc5ccccc5c4)n3)cc2Br)C1` [Compound 34, 2-{3-bromo-4-[(1r,3r)-3-(dimethylamino)cyclobutoxy]phenylamino}-4-(3-quinolylamino)pyrimidine], for which the IC50 is no more than 500 nM.
The result for `COc1cc(Nc2nccc(Nc3cnc4c(Cl)cccc4c3)n2)ccc1O[C@H]1C[C@H](N(C)C)C1` [Compound 358, 4-(8-chloro-3-quinolylamino)-2-{3-methoxy-4-[(1r,3r)-3-(dimethylamino)cyclobutoxy]phenylamino}pyrimidine] reads no more than 500 nM.
In the case of `COc1cc(Nc2nccc(Nc3cnc4c(c3)OCCO4)n2)cnc1O[C@H]1C[C@@H](N(C)C)C1` [Compound 276, 4-(2,3-dihydro-1,4-dioxa-5-aza-7-naphthylamino)-2-{5-methoxy-6-[(1s,3s)-3-(dimethylamino)cyclobutoxy]-3-pyridylamino}pyrimidine] it was no more than 500 nM.
